Source: US11896582B2, “Use and composition for treating myasthenia gravis and other myasthenic syndromes” (priority 2017, dated 2024)
Where “and” joins values, the source holds several entries; their conditions need not be identical. Identical values can stand only once.

System: human subjects
Experiment: Phase I single-blind study: single increasing oral doses of pyridostigmine bromide with or without ondansetron, gastro-intestinal tolerability
Assay type: in vivo
Details: healthy volunteers, one value per subject; for FID-1 Dose Limiting Adverse Event: pyridostigmine alone, oral
Experimental: A Phase I study was conducted in human subjects receiving a single oral dose of pyridostigmine bromide with or without a single oral dose of ondansetron hydrochloride dihydrate (“ondansetron”), as a representative 5HT3-antagonist. The study was a single center, single-blind study.
Following enrollment in the study, participants received single increasing oral doses of pyridostigmine, given once daily in the morning. The starting dose of pyridostigmine was 30 mg and the dose was increased daily by 30 mg increments. Once a subject had reached his/her first intolerable dose (“FID-1”), upward dose escalation was discontinued. FID was defined as: • (a) One (1) episode of vomiting, or • (b) Two (2) episodes of retching, or • (c) One (1) episode of severe nausea (Grade 3; defined as nausea interfering with activities of daily living or inadequate oral caloric or fluid intake; tube feeding, total parenteral nutrition or hospitalization indicated) lasting more than 1 hour, or • (d) Three (3) consecutive episodes at every 4-hour ratings of moderate nausea (Grade 2; defined as subjectively symptomatic, but not interfering with activities of daily living), or • (e) One (1) episode of moderate diarrhea (Grade 2; defined as 4-6 stools more than at baseline).
When a subject reached FID-1 on pyridostigmine alone, the subject was washed out for 2 to 7 days, and then received single daily doses of pyridostigmine starting at 30 mg and titrated upward by 30 mg increments, together with oral ondansetron hydrochloride dihydrate (10 mg, equivalent to 8 mg ondansetron base) until subjects again reached an intolerable dose (FID-2).
On each study day, subjects were followed up for up to 8 hours following drug administration for AEs, vital signs, ECGs. In addition, a laboratory panel was taken at screening and at the end of the study.

For `CN(C)C(=O)Oc1ccc[n+](C)c1` [Pyridostigmine, Pyridostigmine bromide], the “FID-1 (Pyridostigmine alone)” value (first intolerable dose, single oral daily doses from 30 mg, raised by 30 mg increments) was 60 mg (2×) and 90 mg, the “MTD-1 (Pyridostigmine alone)” value (maximum tolerated single oral dose) was 30 mg and 60 mg and the “FID-1 Dose Limiting Adverse Event” value was “Vomiting”. For the same compound, the “FID-1 Dose Limiting Adverse Event” value (listed as pyridostigmine) was “vomiting”.
